Assay results published in ChEMBL document CHEMBL1127588, “A structure-activity relationship study of benzylic modifications of 4-[1-(1-naphthyl)ethyl]-1H-imidazoles on alpha 1- and alpha 2-adrenergic receptors” (J Med Chem, 1994).

Columns and labels:
[1] = molecular target: T1, Adrenergic receptor alpha-1 (Homo sapiens, UniProt P35348+P25100+P35368); experiment: Tested for its inhibitory activity against alpha-1 adrenoceptor in guinea pig ileum; format: tissue-based, Cavia porcellus; details: target entry is the homologue from another species
T1 sequence (P35348 whole entry): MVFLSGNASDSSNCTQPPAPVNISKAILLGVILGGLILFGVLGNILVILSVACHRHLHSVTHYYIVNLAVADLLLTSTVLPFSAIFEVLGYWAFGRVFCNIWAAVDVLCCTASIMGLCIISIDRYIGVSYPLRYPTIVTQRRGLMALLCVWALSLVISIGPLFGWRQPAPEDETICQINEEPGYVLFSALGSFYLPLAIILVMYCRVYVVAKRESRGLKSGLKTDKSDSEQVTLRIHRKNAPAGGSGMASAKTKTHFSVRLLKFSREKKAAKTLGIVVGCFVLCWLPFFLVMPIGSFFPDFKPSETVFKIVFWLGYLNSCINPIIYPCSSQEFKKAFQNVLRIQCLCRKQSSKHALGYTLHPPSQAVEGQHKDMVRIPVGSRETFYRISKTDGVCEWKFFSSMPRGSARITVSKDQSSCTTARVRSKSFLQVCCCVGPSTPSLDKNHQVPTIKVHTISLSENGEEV
T1 sequence (P25100 whole entry): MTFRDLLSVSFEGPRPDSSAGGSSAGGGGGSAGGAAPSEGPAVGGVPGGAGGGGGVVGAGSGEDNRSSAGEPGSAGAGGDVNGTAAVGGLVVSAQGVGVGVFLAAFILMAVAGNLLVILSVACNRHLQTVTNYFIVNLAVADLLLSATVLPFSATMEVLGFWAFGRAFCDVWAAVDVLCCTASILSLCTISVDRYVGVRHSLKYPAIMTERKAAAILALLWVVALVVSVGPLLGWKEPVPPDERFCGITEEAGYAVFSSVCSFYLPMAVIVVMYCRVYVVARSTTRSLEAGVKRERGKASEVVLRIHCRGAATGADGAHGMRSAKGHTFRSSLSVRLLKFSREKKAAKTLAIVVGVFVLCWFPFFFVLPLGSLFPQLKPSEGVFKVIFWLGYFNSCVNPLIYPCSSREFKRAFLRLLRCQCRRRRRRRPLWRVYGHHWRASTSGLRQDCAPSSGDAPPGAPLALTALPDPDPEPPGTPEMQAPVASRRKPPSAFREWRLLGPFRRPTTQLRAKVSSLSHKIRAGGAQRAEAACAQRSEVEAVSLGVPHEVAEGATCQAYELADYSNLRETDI
T1 sequence (P35368 whole entry): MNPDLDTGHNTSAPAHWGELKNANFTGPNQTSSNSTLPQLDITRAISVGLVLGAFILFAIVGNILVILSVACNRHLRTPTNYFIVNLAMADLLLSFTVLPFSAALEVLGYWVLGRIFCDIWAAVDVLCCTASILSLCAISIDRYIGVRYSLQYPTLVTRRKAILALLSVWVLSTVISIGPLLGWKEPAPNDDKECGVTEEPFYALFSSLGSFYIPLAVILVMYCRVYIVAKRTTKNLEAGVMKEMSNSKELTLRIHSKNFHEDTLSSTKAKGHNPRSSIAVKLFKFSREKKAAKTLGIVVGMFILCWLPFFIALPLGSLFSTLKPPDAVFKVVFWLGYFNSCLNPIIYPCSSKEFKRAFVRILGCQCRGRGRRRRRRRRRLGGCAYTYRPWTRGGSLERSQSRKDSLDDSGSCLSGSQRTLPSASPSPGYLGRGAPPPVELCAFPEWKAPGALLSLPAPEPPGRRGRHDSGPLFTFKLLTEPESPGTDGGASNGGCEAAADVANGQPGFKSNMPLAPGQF

[2] = molecular target: T2, Adrenergic receptor alpha-2 (Rattus norvegicus, UniProt P22086+P19328+P22909); experiment: Tested for its binding affinity against alpha-2 receptor in rat brain membrane; format: cell membranes
T2 sequence (P22086 whole entry): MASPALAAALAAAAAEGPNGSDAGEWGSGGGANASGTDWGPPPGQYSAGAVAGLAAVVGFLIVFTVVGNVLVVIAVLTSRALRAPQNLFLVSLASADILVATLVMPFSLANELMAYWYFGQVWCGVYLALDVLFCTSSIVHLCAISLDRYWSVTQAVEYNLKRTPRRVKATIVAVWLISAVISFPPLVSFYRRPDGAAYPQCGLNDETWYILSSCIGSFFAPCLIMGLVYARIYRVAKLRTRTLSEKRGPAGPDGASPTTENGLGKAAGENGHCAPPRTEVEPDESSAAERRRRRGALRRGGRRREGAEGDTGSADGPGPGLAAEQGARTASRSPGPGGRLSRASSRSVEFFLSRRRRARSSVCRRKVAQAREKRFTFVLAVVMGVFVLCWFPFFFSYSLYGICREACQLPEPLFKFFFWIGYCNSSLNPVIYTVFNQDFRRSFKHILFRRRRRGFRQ
T2 sequence (P19328 whole entry): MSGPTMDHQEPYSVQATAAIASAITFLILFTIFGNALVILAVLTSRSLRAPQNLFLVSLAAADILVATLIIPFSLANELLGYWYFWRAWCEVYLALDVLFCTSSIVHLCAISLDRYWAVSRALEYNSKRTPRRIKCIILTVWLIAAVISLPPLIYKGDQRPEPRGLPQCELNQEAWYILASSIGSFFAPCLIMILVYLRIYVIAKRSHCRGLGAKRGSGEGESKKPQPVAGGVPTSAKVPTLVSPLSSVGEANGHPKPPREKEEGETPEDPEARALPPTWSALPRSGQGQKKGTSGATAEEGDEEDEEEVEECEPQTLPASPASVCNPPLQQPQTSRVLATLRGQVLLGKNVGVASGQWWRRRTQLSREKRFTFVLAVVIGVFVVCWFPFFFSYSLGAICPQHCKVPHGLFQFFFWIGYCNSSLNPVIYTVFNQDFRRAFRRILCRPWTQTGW
T2 sequence (P22909 whole entry): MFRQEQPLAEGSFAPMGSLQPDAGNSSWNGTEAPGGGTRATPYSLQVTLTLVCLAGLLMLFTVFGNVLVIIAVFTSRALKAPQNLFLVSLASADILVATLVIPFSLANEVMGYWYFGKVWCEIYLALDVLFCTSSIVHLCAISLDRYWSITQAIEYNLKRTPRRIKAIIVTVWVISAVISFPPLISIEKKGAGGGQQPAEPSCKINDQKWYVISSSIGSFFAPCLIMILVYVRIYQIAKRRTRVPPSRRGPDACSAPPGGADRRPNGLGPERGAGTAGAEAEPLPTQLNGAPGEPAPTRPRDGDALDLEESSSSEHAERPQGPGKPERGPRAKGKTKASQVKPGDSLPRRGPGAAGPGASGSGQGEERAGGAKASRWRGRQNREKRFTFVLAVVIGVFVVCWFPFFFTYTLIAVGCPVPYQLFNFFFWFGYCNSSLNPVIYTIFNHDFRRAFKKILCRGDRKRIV

Row | SMILES | EC50 [1] | Ki [2]
1 | CC(c1c[nH]cn1)c1cccc2ccccc12 (stereo in doubt; 2) | 5.793 µM | 0.017 µM
2 | Cc1cccc(C(C)c2c[nH]cn2)c1C (stereo not drawn) [MEDETOMIDINE] | 1.165 µM | 0.019 µM
3 | CC(c1c[nH]cn1)c1cccc2ccccc12 (stereo in doubt; S-(+)-2) | 8.273 µM | 0.011 µM
4 | Cl.c1ccc2c(Cc3c[nH]cn3)cccc2c1 | 2.113 µM | 0.068 µM
5 | Cl.OC(c1c[nH]cn1)c1cccc2ccccc12 (stereo not drawn) | 12.692 µM | 8.81 µM
6 | CC(c1c[nH]cn1)c1cccc2ccccc12 (stereo in doubt; S-(-)-2) | 10.814 µM | 0.024 µM
7 | COC(c1c[nH]cn1)c1cccc2ccccc12.Cl (stereo not drawn) | – | 8.582 µM
